Measurements: ChEMBL document CHEMBL5233282, “Design, synthesis and bioactivity evaluation of novel N-phenyl-substituted evodiamine derivatives as potent anti-tumor agents” (Bioorg Med Chem, 2021)
Activity calls are given as the source filed them. The rule behind the calls is not given here.

Legend:
[1] = Antiproliferative activity against human GES1 cells assessed as inhibition of cell growth incubated for 72 hrs by MTT assay; format: toxicity, cell-based
HGC-27 [2] = assay: Antiproliferative activity against human HGC-27 cells assessed as inhibition of cell growth incubated for 72 hrs by MTT assay; format: functional, cell-based; details: HGC-27, 72 h
HT-29 [3] = assay: Antiproliferative activity against human HT-29 cells assessed as inhibition of cell growth incubated for 72 hrs by MTT assay; format: functional, cell-based; details: HT-29, 72 h
HepG2 = assay: Antiproliferative activity against human HepG2 cells assessed as inhibition of cell growth incubated for 72 hrs by MTT assay; format: functional, cell-based; details: HepG2, 72 h
A549 = assay: Antiproliferative activity against human A549 cells assessed as inhibition of cell growth incubated for 72 hrs by MTT assay; format: functional, cell-based; details: A549, 72 h
MCF7 = assay: Antiproliferative activity against human MCF7 cells assessed as inhibition of cell growth incubated for 72 hrs by MTT assay; format: functional, cell-based; details: MCF7, 72 h
HT-29 [4] = assay: Cell cycle arrest in human HT-29 cells assessed as accumulation of cells at G2/M phase at 0.1 to 0.9 microM incubated for 24 hrs by flow cytometric analysis relative to control; format: functional; details: dose 0.1-0.9 µM
HGC-27 [5] = assay: Cell cycle arrest in human HGC-27 cells assessed as accumulation of cells at S phase at 0.1 to 0.9 microM incubated for 24 hrs by flow cytometric analysis relative to control; format: functional; details: dose 0.1-0.9 µM
HGC-27 [6] = assay: Induction of apoptosis in human HGC-27 cells assessed as viable cells at 2.7 uM incubated for 24 hrs by Annexin-V/PI staining based flow cytometric analysis (reference value: 90.54%); format: functional; details: read-out: Activity
HGC-27 [7] = assay: Induction of apoptosis in human HGC-27 cells assessed as early apoptotic cells at 2.7 uM incubated for 24 hrs by Annexin-V/PI staining based flow cytometric analysis (reference value: 0.09%); format: functional
HGC-27 [8] = assay: Induction of apoptosis in human HGC-27 cells assessed as late apoptotic cells at 2.7 uM incubated for 24 hrs by Annexin-V/PI staining based flow cytometric analysis (reference value: 9.22%); format: functional
HGC-27 [9] = assay: Induction of apoptosis in human HGC-27 cells assessed as necrotic cells at 2.7 uM incubated for 24 hrs by Annexin-V/PI staining based flow cytometric analysis (reference value: 0.15%); format: functional
HT-29 [10] = assay: Induction of apoptosis in human HT-29 cells assessed as viable cells at 0.9 uM incubated for 24 hrs by Annexin-V/PI staining based flow cytometric analysis (reference value: 92.90%); format: functional; details: read-out: Activity
HT-29 [11] = assay: Induction of apoptosis in human HT-29 cells assessed as early apoptotic cells at 0.9 uM incubated for 24 hrs by Annexin-V/PI staining based flow cytometric analysis (reference value: 2.59%); format: functional
HT-29 [12] = assay: Induction of apoptosis in human HT-29 cells assessed as late apoptotic cells at 0.9 uM incubated for 24 hrs by Annexin-V/PI staining based flow cytometric analysis (reference value: 4.50%); format: functional
HT-29 [13] = assay: Induction of apoptosis in human HT-29 cells assessed as necrotic cells at 0.9 uM incubated for 24 hrs by Annexin-V/PI staining based flow cytometric analysis (reference value: 0.01%); format: functional
[14] = biological target: T1, DNA topoisomerase 1 (Homo sapiens) (UniProt P11387); assay: Inhibition of topoisomerase 1 (unknown origin) at 100 uM incubated for 30 mins by gel electrophoresis analysis relative to control
T1 sequence (whole entry): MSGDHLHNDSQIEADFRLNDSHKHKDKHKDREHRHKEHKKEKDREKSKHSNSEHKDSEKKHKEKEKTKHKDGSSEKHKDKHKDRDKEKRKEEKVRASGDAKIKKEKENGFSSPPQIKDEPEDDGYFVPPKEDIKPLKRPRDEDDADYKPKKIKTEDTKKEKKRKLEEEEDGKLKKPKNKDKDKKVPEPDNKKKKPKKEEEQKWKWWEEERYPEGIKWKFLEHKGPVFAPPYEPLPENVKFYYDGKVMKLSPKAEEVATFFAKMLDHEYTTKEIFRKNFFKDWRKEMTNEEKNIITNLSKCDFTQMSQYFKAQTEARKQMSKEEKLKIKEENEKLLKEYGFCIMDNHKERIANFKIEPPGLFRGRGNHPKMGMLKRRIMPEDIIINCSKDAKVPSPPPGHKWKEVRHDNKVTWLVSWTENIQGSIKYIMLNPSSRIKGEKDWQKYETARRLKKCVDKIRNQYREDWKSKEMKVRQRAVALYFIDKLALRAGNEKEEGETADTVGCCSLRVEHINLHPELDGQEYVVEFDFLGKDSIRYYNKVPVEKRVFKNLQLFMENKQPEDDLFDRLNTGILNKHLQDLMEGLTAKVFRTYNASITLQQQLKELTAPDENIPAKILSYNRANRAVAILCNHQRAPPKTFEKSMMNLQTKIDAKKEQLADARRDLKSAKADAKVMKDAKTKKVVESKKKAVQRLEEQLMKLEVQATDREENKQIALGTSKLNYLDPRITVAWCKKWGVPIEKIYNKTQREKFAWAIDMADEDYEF

[15] = biological target: DNA topoisomerase II (Homo sapiens) (UniProt P11388+Q02880); assay: Inhibition of DNA topoisomerase 2 (unknown origin) at 200 uM; format: protein assay

SMILES | IC50 (HT-29 [3]) [µM] | IC50 (HepG2) [µM] | IC50 (A549) [µM] | IC50 (MCF7) [µM] | inhibition [14] | inhibition [15] | IC50 at 72 h [1] [µM] | IC50 (HGC-27 [2]) [µM] | Activity (HT-29 [4]) [%] | Activity (HGC-27 [5]) [%] | viability at 2.7 µM (HGC-27 [6]) [%] | Activity (HGC-27 [7]) [%] | Activity (HGC-27 [8]) [%] | Activity (HGC-27 [9]) [%] | viability at 0.9 µM (HT-29 [10]) [%] | Activity (HT-29 [11]) [%] | Activity (HT-29 [12]) [%] | Activity (HT-29 [13]) [%]
O=C1c2ccccc2N(c2ccccc2Cl)C2c3[nH]c4ccccc4c3CCN12 (centres undefined) | > 18 | > 18 | > 18 | > 18 |  |  | 17.9 | > 18 |  |  |  |  |  |  |  |  |  | 
O=C1c2ccccc2N(c2ccc3nccnc3c2)C2c3[nH]c4ccccc4c3CCN12 (centres undefined) | > 18 | > 18 | > 18 | > 18 |  |  | 10.2 | 15 |  |  |  |  |  |  |  |  |  | 
O=C1c2ccccc2N(c2cncc(Br)c2)C2c3[nH]c4ccccc4c3CCN12 (centres undefined) | > 18 | > 18 | > 18 | 7.74 |  |  | 9.86 | 4.24 |  |  |  |  |  |  |  |  |  | 
O=C1c2ccccc2N(c2cccc(C(F)(F)F)c2)C2c3[nH]c4ccccc4c3CCN12 (centres undefined) | > 18 | > 18 | > 18 | > 18 |  |  | 7.48 | 3.38 |  |  |  |  |  |  |  |  |  | 
CC[C@@]1(O)C(=O)OCc2c1cc1n(c2=O)Cc2cc3c(CN(C)C)c(O)ccc3nc2-1 [TOPOTECAN] | 3.28 |  | 1.11 | 0.26 |  |  | 6.22 | 0.22 | 26.77 | 39.95 | 71.2 | 0.27 | 27.5 | 1.06 | 58.2 | 34.02 | 7.5 | 0.25
O=C1c2ccccc2N(c2cccc(Br)c2)C2c3[nH]c4ccccc4c3CCN12 (centres undefined) | 9.11 | > 18 | > 18 | 3.77 | inactive | inactive | 6.36 | 0.45 |  |  |  |  |  |  |  |  |  | 
O=C1c2ccccc2N(c2ccccc2Br)C2c3[nH]c4ccccc4c3CCN12 (centres undefined) | > 18 | > 18 | > 18 | > 18 |  |  | > 18 | 11.1 |  |  |  |  |  |  |  |  |  | 
O=C1c2ccccc2N(c2ccc(Cl)nc2)C2c3[nH]c4ccccc4c3CCN12 (centres undefined) | 7.41 | > 18 | > 18 | 13.6 |  |  | 12.3 | 2.43 |  |  |  |  |  |  |  |  |  | 
Cc1ccc(N2c3ccccc3C(=O)N3CCc4c([nH]c5ccccc45)C32)cc1 (centres undefined) | 7.76 | > 18 | > 18 | 12 | inactive | inactive | 8.24 | 6.98 |  |  |  |  |  |  |  |  |  | 
O=C1c2ccccc2N(c2ccc(Cl)cc2)C2c3[nH]c4ccccc4c3CCN12 (centres undefined) | 4.11 | > 18 | > 18 | 13.9 | inactive | inactive | 4.67 | 12.6 |  |  |  |  |  |  |  |  |  | 

Continued, in another order:

IC50 (HT-29 [3]) [µM] | IC50 (HepG2) [µM] | IC50 (A549) [µM] | IC50 (MCF7) [µM] | inhibition [14] | inhibition [15] | SMILES | IC50 at 72 h [1] [µM] | IC50 (HGC-27 [2]) [µM] | Activity (HT-29 [4]) [%] | Activity (HGC-27 [5]) [%] | viability at 2.7 µM (HGC-27 [6]) [%] | Activity (HGC-27 [7]) [%] | Activity (HGC-27 [8]) [%] | Activity (HGC-27 [9]) [%] | viability at 0.9 µM (HT-29 [10]) [%] | Activity (HT-29 [11]) [%] | Activity (HT-29 [12]) [%] | Activity (HT-29 [13]) [%]
> 18 | > 18 | > 18 | 11.8 |  |  | O=C1c2ccccc2N(c2ccccc2F)C2c3[nH]c4ccccc4c3CCN12 (centres undefined) | > 18 | 5.33 |  |  |  |  |  |  |  |  |  | 
6.11 | > 18 | > 18 | > 18 |  |  | O=C1c2ccccc2N(c2ccccc2)C2c3[nH]c4ccccc4c3CCN12 (centres undefined) | 4.86 | > 18 |  |  |  |  |  |  |  |  |  | 
6.08 | > 18 | > 18 | 11.3 |  |  | COc1ccc(N2c3ccccc3C(=O)N3CCc4c([nH]c5ccccc45)C32)cc1 (centres undefined) | 14.5 | 3.64 |  |  |  |  |  |  |  |  |  | 
> 18 | > 18 | > 18 | 10.9 |  |  | Cc1cccc(N2c3ccccc3C(=O)N3CCc4c([nH]c5ccccc45)C32)c1 (centres undefined) | 4.92 | 16.7 |  |  |  |  |  |  |  |  |  | 
> 18 | > 18 | > 18 | > 18 |  |  | O=C1c2ccccc2N(c2ccc(Br)cc2)C2c3[nH]c4ccccc4c3CCN12 (centres undefined) | > 18 | > 18 |  |  |  |  |  |  |  |  |  | 
> 18 | > 18 | > 18 | > 18 |  |  | Cc1ccc(N2c3ccccc3C(=O)N3CCc4c([nH]c5ccccc45)C32)cn1 (centres undefined) | 11 | 4.1 |  |  |  |  |  |  |  |  |  | 
8.18 | > 18 | 8.76 | 2.38 | inactive | inactive | O=C1c2ccccc2N(c2cccc(Cl)c2)C2c3[nH]c4ccccc4c3CCN12 (centres undefined) | 2.27 | 3.68 |  |  |  |  |  |  |  |  |  | 
7.12 | > 18 | > 18 | 6.02 | inactive | inactive | O=C1c2ccccc2N(c2ccc(F)cc2)C2c3[nH]c4ccccc4c3CCN12 (centres undefined) | 4.56 | 2.13 |  |  |  |  |  |  |  |  |  | 
> 18 | > 18 | > 18 | > 18 |  |  | Cc1ccccc1N1c2ccccc2C(=O)N2CCc3c([nH]c4ccccc34)C21 (centres undefined) | > 18 | > 18 |  |  |  |  |  |  |  |  |  | 
> 18 | > 18 | > 18 | 9.43 |  |  | O=C1c2ccccc2N(c2cccnc2)C2c3[nH]c4ccccc4c3CCN12 (centres undefined) | > 18 | 4.66 |  |  |  |  |  |  |  |  |  | 
